These results are taken from patent publication US20040110802A1, “Antibacterial benzoic acid derivatives” (priority 2002, published 2004).

Structures are written as SMILES. Converted amounts (≈) assume the structure as drawn.

One may read the MIC as the smallest concentration in the dilution series that meets the test's criterion for growth inhibition.

The test concerns SAUR 9218. The test can be described thus: MIC Test Method, standard agar dilution. The following applies: agar dilution, Mueller Hinton agar, incubated overnight at 35° C.; lowest concentration that inhibits visible growth; read-out: SAUR 9218 MIC. It counts as cell-based. Summed up: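 Agar dilution in Mueller Hinton agar with serial 2-fold compound dilutions. Staphylococcus aureus strain 9218 spotted at approximately 10^4 to 10^5 cells per spot, incubated overnight at 35 °C; MIC (μg/ml) is the lowest concentration preventing visible growth.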

With `Cc1c(S(=O)(=O)NCCc2ccc(N)cc2)csc1C(=O)Nc1ccc(Br)cc1C(=O)O`, the MIC is 8 µg/mL (≈ 14.9 µM). With `O=C(Nc1ccc(Br)cc1C(=O)O)c1csc(S(=O)(=O)N2CCc3ccccc32)c1`, the MIC was determined as 2 µg/mL (≈ 3.94 µM). As to `Cc1c(S(=O)(=O)Nc2ccc3c(c2)OCCO3)csc1C(=O)Nc1ccc(Br)cc1C(=O)O`, the MIC was 16 µg/mL (≈ 28.9 µM).

`Cc1sc(C(=O)Nc2ccc(Br)cc2C(=O)O)cc1S(=O)(=O)Nc1ccc(F)c(Cl)c1`: the MIC was 8 µg/mL (≈ 14.6 µM). Regarding `Cc1c(S(=O)(=O)Nc2ccc(N3CCOCC3)cc2)csc1C(=O)Nc1ccc(Br)cc1C(=O)O`, the MIC stood at 64 µg/mL (≈ 110 µM). To `CCN(CC)c1ccc(NS(=O)(=O)c2csc(C(=O)Nc3ccc(Br)cc3C(=O)O)c2C)cc1` belongs 64 µg/mL (≈ 113 µM); to `O=C(Nc1ccc(Br)cc1C(=O)O)c1csc(S(=O)(=O)N2CCc3ccc(Cl)cc32)c1`, 8 µg/mL (≈ 14.8 µM); to `Cc1sc(C(=O)Nc2ccc(Br)cc2C(=O)O)cc1S(=O)(=O)N1CCc2ccc(Cl)cc21`, 1 µg/mL (≈ 1.8 µM).

Take `COCCn1c(C(=O)Nc2ccc(C#N)cc2C(=O)O)cc2ccccc21`: the MIC was 0.5 µg/mL (≈ 1.38 µM). Regarding `CCCCCn1c(C(=O)Nc2ccc(C#N)cc2C(=O)O)cc2ccccc21`, the MIC amounted to 2 µg/mL (≈ 5.33 µM). To `CCCCn1c(C(=O)Nc2ccc(C#N)cc2C(=O)O)cc2ccccc21` belongs 32 µg/mL (≈ 88.5 µM); to `CCCn1c(C(=O)Nc2ccc(C#N)cc2C(=O)O)cc2ccccc21`, 2 µg/mL (≈ 5.76 µM).

As to `CCCn1c(C(=O)Nc2ccc(Cl)cc2C(=O)O)cc2ccccc21`, the MIC stood at 4 µg/mL (≈ 11.2 µM).

Take `CCCCn1c(C(=O)Nc2ccc(Cl)cc2C(=O)O)cc2ccccc21`: the minimum inhibitory concentration (MIC) is 4 µg/mL (≈ 10.8 µM). To `CCCCCn1c(C(=O)Nc2ccc(Cl)cc2C(=O)O)cc2ccccc21` belongs 4 µg/mL (≈ 10.4 µM); to `COCCn1c(C(=O)Nc2ccc(Cl)cc2C(=O)O)cc2ccccc21`, 16 µg/mL (≈ 42.9 µM). To `O=C(O)c1cc(Cl)ccc1NC(=O)c1cc2ccccc2n1CC1CCCCC1` belongs 0.5 µg/mL (≈ 1.22 µM); to `C=CCn1c(C(=O)Nc2ccc(Cl)cc2C(=O)O)cc2ccccc21`, 1 µg/mL (≈ 2.82 µM); to `C=CCn1c(C(=O)Nc2ccc(Br)cc2C(=O)O)cc2ccccc21`, 8 µg/mL (≈ 20 µM).

As for `O=C(O)c1cc(Br)ccc1NC(=O)c1cc2ccccc2n1CC1CCCCC1`, the MIC was found to be 4 µg/mL (≈ 8.78 µM). The figure for `COCCn1c(C(=O)Nc2ccc(Br)cc2C(=O)O)cc2ccccc21` is 16 µg/mL (≈ 38.3 µM); for `CCCCCn1c(C(=O)Nc2ccc(Br)cc2C(=O)O)cc2ccccc21` it is 2 µg/mL (≈ 4.66 µM).

For the molecule `CCCCn1c(C(=O)Nc2ccc(Br)cc2C(=O)O)cc2ccccc21`, the MIC turned out to be 4 µg/mL (≈ 9.63 µM). Turning to `CCCn1c(C(=O)Nc2ccc(Br)cc2C(=O)O)cc2ccccc21`, the MIC was 4 µg/mL (≈ 9.97 µM).

For the molecule `O=C(Nc1ccc(Br)cc1C(=O)O)c1cc(OCc2ccccc2)ccn1`, the MIC worked out at 4 µg/mL (≈ 9.36 µM). On to `O=C(O)c1cc(Cl)ccc1NC(=O)c1cc2ccccc2n1Cc1ccccc1`, for which the minimal inhibitory concentration (MIC) amounted to 4 µg/mL (≈ 9.88 µM). The figure for `O=C(O)c1cc(Br)ccc1NC(=O)c1cc2ccccc2n1Cc1ccccc1` is 4 µg/mL (≈ 8.9 µM); for `CC(C)n1c(C(=O)Nc2ccc(Br)cc2C(=O)O)cc2ccccc21` it is 4 µg/mL (≈ 9.97 µM). With `CC(C)n1c(C(=O)Nc2ccc(C#N)cc2C(=O)O)cc2ccccc21`, the MIC was 2 µg/mL (≈ 5.76 µM). As for `Cn1c(C(=O)Nc2ccc(Cl)cc2C(=O)O)cc2ccccc21`, the MIC worked out at 4 µg/mL (≈ 12.2 µM). The figure for `CC(C)Cn1c(C(=O)Nc2ccc(Cl)cc2C(=O)O)cc2ccccc21` is 2 µg/mL (≈ 5.39 µM); for `CC(C)Cn1c(C(=O)Nc2ccc(Br)cc2C(=O)O)cc2ccccc21` it is 2 µg/mL (≈ 4.82 µM). Turning to `CC(C)Cn1c(C(=O)Nc2ccc(C#N)cc2C(=O)O)cc2ccccc21`, the MIC came out at 4 µg/mL (≈ 11.1 µM). The figure for `N#Cc1ccc(NC(=O)c2cc3ccccc3n2CCCc2ccccc2)c(C(=O)O)c1` is 4 µg/mL (≈ 9.45 µM).

Regarding `O=C(O)c1cc(Cl)ccc1NC(=O)c1cc2ccccc2n1CCCc1ccccc1`, the MIC was found to be 4 µg/mL (≈ 9.24 µM). For the molecule `O=C(O)c1cc(Br)ccc1NC(=O)c1cc2ccccc2n1CCCc1ccccc1`, the MIC stood at 4 µg/mL (≈ 8.38 µM). To `COCCOCCCSc1ccc(C(=O)Nc2ccc(Cl)cc2C(=O)O)cn1` belongs 4 µg/mL (≈ 9.41 µM); to `N#Cc1ccc(NC(=O)c2nsc(Cl)c2Cl)c(C(=O)O)c1`, 4 µg/mL (≈ 11.7 µM). The figure for `N#Cc1ccc(NC(=O)c2nsc(-c3ccccc3)c2Cl)c(C(=O)O)c1` is 0.5 µg/mL (≈ 1.3 µM); for `O=C(O)c1cc(Br)ccc1NC(=O)c1cc(Cl)cc[n+]1[O-]` it is above 128 µg/mL. To `N#Cc1ccc(NC(=O)c2cc(-c3ccccc3)no2)c(C(=O)O)c1` belongs 0.5 µg/mL (≈ 1.5 µM); to `O=C(O)c1cc(Cl)ccc1/C=C/c1cc(-c2ccccc2)on1`, 32 µg/mL (≈ 98.2 µM); to `N#Cc1ccc(/C=C/c2cc(-c3ccccc3)on2)c(C(=O)O)c1`, 64 µg/mL (≈ 202 µM). For the molecule `N#Cc1ccc(NC(=O)c2cc(OCc3ccccc3)ccn2)c(C(=O)O)c1`, the MIC was found to be 0.5 µg/mL (≈ 1.34 µM). The figure for `N#Cc1ccc(NC(=O)c2ccc(SCc3nsc(Cl)n3)nc2)c(C(=O)O)c1` is 0.25 µg/mL (≈ 0.579 µM); for `N#Cc1ccc(NC(=O)c2ccc(SCc3ncon3)nc2)c(C(=O)O)c1` it is 1 µg/mL (≈ 2.62 µM). Consider `O=C(O)c1cc(Br)ccc1NC(=O)c1cc(OCc2ccccc2)cc[n+]1[O-]`, for which the MIC was 32 µg/mL (≈ 72.2 µM).

`O=C(O)c1cc(Br)ccc1NC(=O)c1cc(SCc2ccccc2)cc[n+]1[O-]`: the MIC was 8 µg/mL (≈ 17.4 µM). The figure for `COc1ccc(-c2cc(C(=O)Nc3ccc(C#N)cc3C(=O)O)no2)cc1` is 0.5 µg/mL (≈ 1.38 µM); for `N#Cc1ccc(NC(=O)c2cc(-c3ccc(C(F)(F)F)cc3)on2)c(C(=O)O)c1` it is 1 µg/mL (≈ 2.49 µM).

On to `N#Cc1ccc(NC(=O)c2cc(-c3ccccc3Cl)on2)c(C(=O)O)c1`, for which the minimal inhibitory concentration (MIC) is 0.125 µg/mL (≈ 0.34 µM).

As for `N#Cc1ccc(NC(=O)c2cc(-c3ccccc3F)on2)c(C(=O)O)c1`, the MIC was 0.125 µg/mL (≈ 0.356 µM). `CC(=O)OCCCCSc1ccc(C(=O)Nc2ccc(C#N)cc2C(=O)O)cn1`: the MIC was found to be 0.25 µg/mL (≈ 0.605 µM). As to `Cc1nn(-c2ccccc2)nc1C(=O)Nc1ccc(C#N)cc1C(=O)O`, the minimum inhibitory concentration (MIC) stood at 4 µg/mL (≈ 11.5 µM). To `N#Cc1ccc(NC(=O)c2ccc(SCCCCO)nc2)c(C(=O)O)c1` belongs 2 µg/mL (≈ 5.38 µM); to `O=C(Nc1ccc(Cl)cc1C(=O)O)c1cc2cccc(S(=O)(=O)c3ccccc3)c2[nH]1`, 0.125 µg/mL (≈ 0.275 µM); to `O=C(Nc1ccc(Br)cc1C(=O)O)c1cc2cccc(S(=O)(=O)c3ccccc3)c2[nH]1`, 0.125 µg/mL (≈ 0.25 µM). The figure for `Cn1c(C(=O)Nc2ccc(C#N)cc2C(=O)O)cc2cccc(S(=O)(=O)c3ccccc3)c21` is 0.125 µg/mL (≈ 0.272 µM); for `COc1ccc(-c2cnc(C(=O)Nc3ccc(C#N)cc3C(=O)O)o2)cc1` it is 1 µg/mL (≈ 2.75 µM); for `COc1ccccc1-c1cnc(C(=O)Nc2ccc(C#N)cc2C(=O)O)o1` it is 1 µg/mL (≈ 2.75 µM). The figure for `COc1ccccc1-c1cnc(C(=O)Nc2ccc(Br)cc2C(=O)O)o1` is 2 µg/mL (≈ 4.79 µM); for `COc1ccc(-c2cc(C(=O)Nc3ccc(Cl)cc3C(=O)O)no2)cc1` it is 0.25 µg/mL (≈ 0.671 µM); for `N#Cc1ccc(NC(=O)c2cc(-c3ccccc3C(F)(F)F)on2)c(C(=O)O)c1` it is 0.25 µg/mL (≈ 0.623 µM).

With `CC(C)(C)c1cc(C(=O)Nc2ccc(C#N)cc2C(=O)O)no1`, the MIC is 1 µg/mL (≈ 3.19 µM). To `Cc1noc(C)c1-c1cc(C(=O)Nc2ccc(C#N)cc2C(=O)O)no1` belongs 1 µg/mL (≈ 2.84 µM); to `Cc1c(C(=O)Nc2ccc(C#N)cc2C(=O)O)noc1-c1ccccc1`, 0.25 µg/mL (≈ 0.72 µM).

Regarding `O=C(Nc1ccc(Br)cc1C(=O)O)c1cc(-c2ccccc2C(F)(F)F)on1`, the MIC was determined as 0.5 µg/mL (≈ 1.1 µM). For `O=C(Nc1ccc(Cl)cc1C(=O)O)c1cc(-c2ccccc2C(F)(F)F)on1`, the MIC is 1 µg/mL (≈ 2.43 µM). The figure for `Cc1c(C(=O)Nc2ccc(Br)cc2C(=O)O)noc1-c1ccccc1` is 0.5 µg/mL (≈ 1.25 µM); for `O=C(Nc1ccc(Br)cc1C(=O)O)c1cc(-c2ccc(C(F)(F)F)cc2)on1` it is 1 µg/mL (≈ 2.2 µM); for `Cc1cc(NS(=O)(=O)c2ccc(-c3cc(C(=O)Nc4ccc(Br)cc4C(=O)O)no3)cc2)no1` it is 32 µg/mL (≈ 58.5 µM). The figure for `O=C(Nc1ccc(Cl)cc1C(=O)O)c1cc(-c2ccc(C(F)(F)F)cc2)on1` is 0.5 µg/mL (≈ 1.22 µM); for `COc1ccc(-c2cc(C(=O)Nc3ccc(Br)cc3C(=O)O)no2)cc1` it is 0.5 µg/mL (≈ 1.2 µM); for `N#Cc1ccc(NC(=O)c2cc(CCCC3CCCCC3)on2)c(C(=O)O)c1` it is 0.25 µg/mL (≈ 0.655 µM). To `N#Cc1ccc(NC(=O)c2cc(CCCc3ccccc3)on2)c(C(=O)O)c1` belongs 0.125 µg/mL (≈ 0.333 µM). Regarding `COc1ccccc1-c1cc(C(=O)Nc2ccc(C#N)cc2C(=O)O)no1`, the MIC came to 0.125 µg/mL (≈ 0.344 µM).

As to `O=C(Nc1ccc(Br)cc1C(=O)O)c1ncc(-c2ccccc2)o1`, the MIC worked out at 1 µg/mL (≈ 2.58 µM). The figure for `COc1ccc(-c2cnc(C(=O)Nc3ccc(Br)cc3C(=O)O)o2)cc1` is 2 µg/mL (≈ 4.79 µM); for `O=C(Nc1ccc(Br)cc1C(=O)O)c1ncc(-c2ccc3c(c2)OCO3)o1` it is 2 µg/mL (≈ 4.64 µM). To `Cn1c(C(=O)Nc2ccc(Br)cc2C(=O)O)cc2cccc(S(=O)(=O)c3ccccc3)c21` belongs 0.125 µg/mL (≈ 0.243 µM); to `Cn1c(C(=O)Nc2ccc(Cl)cc2C(=O)O)cc2cccc(S(=O)(=O)c3ccccc3)c21`, 0.125 µg/mL (≈ 0.267 µM).

On to `N#Cc1ccc(NC(=O)c2cc3ccccc3cn2)c(C(=O)O)c1`, for which the MIC was 1 µg/mL (≈ 3.15 µM). The figure for `N#Cc1ccc(NC(=O)c2cc3cccc(NC(=O)Cc4ccccc4)c3[nH]2)c(C(=O)O)c1` is 0.125 µg/mL (≈ 0.285 µM). To `N#Cc1ccc(NC(=O)c2cc3cccc(NC(=O)c4ccccc4)c3[nH]2)c(C(=O)O)c1` belongs 2 µg/mL (≈ 4.71 µM); to `CC(=O)OCC(=O)Nc1cccc2cc(C(=O)Nc3ccc(C#N)cc3C(=O)O)[nH]c12`, 2 µg/mL (≈ 4.76 µM). Turning to `N#Cc1ccc(NC(=O)c2cc3cccc(NC(=O)C4CCCC4)c3[nH]2)c(C(=O)O)c1`, the MIC is 2 µg/mL (≈ 4.8 µM). The figure for `N#Cc1ccc(NC(=O)c2cc3cccc(N)c3[nH]2)c(C(=O)O)c1` is 1 µg/mL (≈ 3.12 µM).

For the molecule `N#Cc1ccc(NC(=O)c2noc3ccccc23)c(C(=O)O)c1`, the MIC worked out at 0.125 µg/mL (≈ 0.407 µM). For `N#Cc1ccc(NC(=O)c2ncc(-c3ccc(F)cc3)o2)c(C(=O)O)c1`, the MIC is 1 µg/mL (≈ 2.85 µM). In the case of `O=C(Nc1ccc(Br)cc1C(=O)O)c1cc(CCCC2CCCCC2)on1`, the MIC was found to be 4 µg/mL (≈ 9.19 µM). `O=C(Nc1ccc(Br)cc1C(=O)O)c1cc(CCCc2ccccc2)on1`: the MIC was 0.25 µg/mL (≈ 0.582 µM).
